Laboratory results: patent US10301298B2, “Methods, compounds, and compositions for the treatment of angiotensin-related diseases” (University of Southern California, priority 2013, dated 2019)
Like-named read-outs stand apart in the source and are kept apart here.

Columns and labels:
Mas = biological target: T1, Mas (Homo sapiens, UniProt P04201); test: NO production in CHO cells stably transfected with Human Mas1; format: cell-based; conditions: for NO production with co-administration of A779: with A779, selective Mas antagonist, 1×10^−7 M
T1 construct: expressed in transfected cells
T1 sequence (P04201 1-325): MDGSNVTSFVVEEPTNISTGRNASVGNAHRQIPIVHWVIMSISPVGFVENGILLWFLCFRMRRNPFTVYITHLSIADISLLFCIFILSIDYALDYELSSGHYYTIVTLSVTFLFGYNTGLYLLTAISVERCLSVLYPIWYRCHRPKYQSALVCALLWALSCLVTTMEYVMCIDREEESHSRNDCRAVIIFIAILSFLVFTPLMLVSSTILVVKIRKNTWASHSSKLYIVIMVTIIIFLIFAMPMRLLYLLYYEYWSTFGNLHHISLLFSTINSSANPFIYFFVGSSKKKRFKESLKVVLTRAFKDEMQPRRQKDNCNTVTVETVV
Procedure: Transfected cells that express Mas were used to identify and evaluate provided compounds as Mas agonists, by promoting NO production as readouts. CHO cells stably transfected with pTEJ-8 vector containing recombinant Human Mas1 clone were grown to confluency. Cells were washed three times for 30/5/5 minutes with prewarmed (37° C.) Tyrodes Salts (supplemented with 1 g/L NaHCO3, and 1.9 g/L d-Glucose). Cells were incubated for a short time in 700 μL of supplemented Tyrodes salts containing 10 μM PTIO, 100 μM DAN, and 1 mM L-arginine. When using antagonist for competition assays, cells were exposed to the inhibitor at 1×10^−7 M for 15 minutes, before additional drugs are added.
Chemicals (10^−8 to 10^−6 M or the maximum concentration found not to cause cytotoxicity) to be screened were added to the cell medium and the plates were agitated for 1 minute before being placed into the incubator for 2 hours. After 2 hours, cellular supernatants were transferred to opaque 96 well plates, and the fluorescence intensity was recorded at an ex/em of 380/425.

MDA MB 231 = test: MTT cellular viability of MDA MB 231 breast cancer cell line; format: cell-based; conditions: for IC50: Homo sapiens, MDA-MB-231, MTT
Procedure: Compound 7 was evaluated for its ability to modulate cancer proliferation using MDA MB 231 breast cancer cell line. MDA MB 231 was treated with increasing concentration of Compound 7 ranged from 1×10^−12 to 1×10^−3 M, where the cells were incubated for 48 hours. After the incubation, cellular viability was evaluated using 3-(4,5-dimethylthiazol-2-yl)-2,5-diphenyltetrazolium bromide or MTT, where viable cells are able to reduce MTT to formazan and form an insoluble crystal. The solubilized crystal can be spectrometrically determine, where cellular viability is compared to cells treated with vehicle. The cellular viability of MDA MB 231 is summarized (FIG. 9). […] Rather at 1×10^−12 M ([…]) of Compound 7, the cellular proliferation was only 70% of vehicle treated.

AT2R = biological target: T2, AT2R (Homo sapiens, UniProt P50052); test: AT2R displacement assay with radiolabeled Ang II; format: binding; conditions: displacement of radiolabeled Ang II or analogs; read-out: EC50 displacing Ang II in the AT2R displacement assay
T2 sequence (P50052 1-363): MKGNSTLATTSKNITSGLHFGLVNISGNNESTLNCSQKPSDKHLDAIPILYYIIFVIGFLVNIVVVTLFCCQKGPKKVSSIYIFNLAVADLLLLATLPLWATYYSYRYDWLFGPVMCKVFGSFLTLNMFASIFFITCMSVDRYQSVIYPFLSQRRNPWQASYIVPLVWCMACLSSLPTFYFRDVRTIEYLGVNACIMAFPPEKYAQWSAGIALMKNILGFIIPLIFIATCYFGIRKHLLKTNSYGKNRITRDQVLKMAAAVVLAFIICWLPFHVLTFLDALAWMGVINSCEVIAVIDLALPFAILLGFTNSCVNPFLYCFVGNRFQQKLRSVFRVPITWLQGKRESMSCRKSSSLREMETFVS
Procedure: Compound 7 was evaluated in vitro for its ability to compete with ratholabeled Ang II or analogs in a displacement assay for AT1R and AT2R receptors.

db/db mice [1] = test: Organ weights (organmegaly) in db/db mice; format: in vivo; conditions: 14 days
Text: Compound 7 (500 mcg/kg/day) or Ang(1-7) (500 mcg/kg/day) treated db/db mice were euphanized after 14 days of treatment. At necropsy, organs were collected for histology and weights. In FIG. 6A to 6C, hearts, left and right kidney normalized to tibia length were weight where db/db treated with Compound 7 were lower than db/db-controls (saline) and db/db treated with Ang(1-7).

db/db mice [2] = test: Liver lipid levels, Oil Red O staining, in db/db mice; format: in vivo; conditions: 500 mcg/kg/day, 14 days
Procedure: The lipid levels found in the liver was evaluated in db/db animals treated for 14 days with vehicle, 500 mcg/kg/day Ang(1-7) or Compound 7. Livers isolated from mice were harvested. Liver tissue sections were washed with cold saline and frozen in the presence of optimum cutting temperature (OCT) formulation. Tissues were then cut into 10-μm sections using a cryostat. Oil Red O staining and H&E staining were performed according to published procedures (Yang et al., 2013). The tissues were observed and images acquired using a light microscope (Olympus BX51) (FIG. 6).

[3] = 500 mcg/kg/day, p<0.05 vs db/db controls

## CCCCOC(=O)NS(=O)(=O)c1ccc(OC(F)(F)F)cc1-c1ccc(Cn2ccnc2)cn1 [Compound 7, butyl (2-(5-((1H-imidazol-1-yl)methyl)pyridin-2-yl)-4-(trifluoromethoxy)phenyl)sulfonylcarbamate]
Mas; Mas-transfected CHO cells
  ability to enhance NO production (fluorescence): concentration dependent increase in NO
Mas; Mas-transfected CHO cells, 2 hours
  EC50: 10 nM
Mas
  NO production with co-administration of A779: back to baseline
Mas; listed as compound 7
  NO production with co-administration of A779: back to baseline fluorescence
MDA MB 231; 48 hours, read-out: IC50 (MDA MB 231 proliferation)
  IC50: 58 nM
MDA MB 231; 48 hours, read-out: IC50 (MDA MB 231 viability, Hill-slope analysis)
  IC50: 58.2 nM
MDA MB 231; MDA MB 231, 1×10^−12 to 1×10^−3 M
  effect on breast cancer cell proliferation: did not increase breast cancer cell proliferation
MDA MB 231; MDA MB 231, at 1×10^−12 M, 48 hours
  cellular proliferation, % of vehicle treated: 70%
AT2R
  EC50: > 10000 nM
db/db mice [1]; 500 μg/kg/day
  right kidney weight: trended to be similar to heterozygous control
db/db mice [1]; [3]
  development of cardiomegaly (heart weight normalized to tibia length): prevent the development of cardiomegaly
  development of left kidney hypertrophy (weight normalized to tibia length): prevent
db/db mice [2]
  Oil Red staining of liver (lipid deposition) compared with db/db controls: reduced Oil Red staining
